Test systems include BT-549; Hs-578T; DLD-1; DMS-114; DMS-273; HOP-18; LXFL 529; XF498.
What all share (assay): growth of human tumour cells (NCI), 48 h

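Following 48 hours of exposure in 96-well plates, responses at five concentrations were used to interpolate endpoints linearly. GI50 is the concentration that inhibits growth by half.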 Active and inactive are the calls of the source. Cut-off read from the data, not from the text of the source: active = GI50 up to about 1.1 µM and inactive = higher.

59 molecules from ChEMBL document CHEMBL1201862, “PubChem BioAssay data set” (2004) can be followed below.

`O=C1OC2(c3ccc(O)cc3Oc3cc(O)ccc32)c2c1c(-c1ccccc1)c(-c1ccccc1)c(-c1ccccc1)c2-c1ccccc1`: the results for the GI50 in the experiment with BT-549 and in the experiment with Hs-578T were 23.6 µM (inactive) and 22 µM (inactive), respectively.
Consider `O=C(CSc1nc2ccc([N+](=O)[O-])cc2s1)c1ccc2ccccc2c1`, for which the GI50 is > 100 µM (inactive) with BT-549 and 89.5 µM (inactive) in the experiment on Hs-578T.
With `CC(C)(C)N(Cc1ccc2c(c1)OCO2)C(=O)/C=C\[S+]([O-])c1ccccc1` (stereo not drawn), the GI50 with BT-549 was 2.43 µM (inactive); in the experiment with Hs-578T, 2.33 µM (inactive).
As to `O=C(O)CCC1(c2ccccc2)NC(=O)NC1=O` (stereo not drawn), the GI50 in the experiment on BT-549 and in the experiment with Hs-578T was > 100 µM (inactive) throughout.
Consider `COC(=O)C(C(=O)C(=O)NC1Nc2ccc(C)cc2S1)c1nc2ccc(Cl)cc2nc1O` (stereo not drawn), for which the GI50 in the experiment with BT-549 and in the experiment on Hs-578T was > 100 µM (inactive) each time.
On to `COc1ccc(S(=O)(=O)c2ccccc2[N+](=O)[O-])cc1`, for which the GI50 was > 100 µM (inactive) in the experiment on DLD-1; 57.7 µM (inactive) in the experiment on DMS-114; > 100 µM (inactive) with DMS-273; > 100 µM (inactive) with HOP-18; 92 µM (inactive) with LXFL 529.
For `CCOC(=O)/C(C#N)=C(N)/C(=N\Nc1cccc(C(F)(F)F)c1)C(=O)OCC`, the GI50 in the experiment with DLD-1, in the experiment on DMS-114, with DMS-273, with HOP-18 and with LXFL 529 was > 100 µM (inactive) each time.
With `CN1CCN([C@H]2C[C@H]3[C@@H]4CC=C5C[C@@H](O)CC[C@]5(C)[C@H]4CC[C@]3(C)[C@H]2O)CC1`, the GI50 in the experiment with BT-549 was > 81.8 µM (inactive); with Hs-578T, > 100 µM (inactive).
For `CN(C)C(=O)O/N=C1/C(=C2/C(=O)Nc3ccccc32)Nc2ccccc21`, in that order: 13.4 µM (inactive) and 9.35 µM (inactive).
In the case of `CC(=O)Nc1ccc(-c2nnc(SCC(=O)Nc3ccccc3)o2)cc1`, the GI50 with DLD-1 is 59 µM (inactive); in the experiment with DMS-114, 39.8 µM (inactive); in the experiment with DMS-273, 50.6 µM (inactive); with HOP-18 it was > 100 µM (inactive); in the experiment with LXFL 529 it was 34.6 µM (inactive).
For the molecule `OC1C[C@H](c2ccccc2)C2(C(O)c3ccccc3C2O)[C@@H](c2ccccc2)C1` (stereo partly drawn), the GI50 with BT-549 and with Hs-578T was > 100 µM (inactive) throughout.
`CC(C)(C)OC(=O)NC(Cc1ccc(OCc2ccccc2)cn1)C(=O)NCc1ccccc1` (stereo not drawn): the figures for the GI50 in the experiment on BT-549 and with Hs-578T were 20.7 µM (inactive) and 29 µM (inactive), respectively.
`COC(=O)C1CC2(c3ccccc3)C(=O)c3ccccc3N2O1` (stereo not drawn): the GI50 in the experiment with DLD-1 is 78.7 µM (inactive); in the experiment on DMS-114 it was 46.6 µM (inactive); with DMS-273, 31.6 µM (inactive); in the experiment with HOP-18, > 100 µM (inactive); in the experiment on LXFL 529 it was 50 µM (inactive).
Regarding `Cc1ccc(NC(=O)/C=C/c2ccccc2)c(C)c1`, the figures for the GI50 in the experiment with BT-549 and in the experiment on Hs-578T were > 100 µM (inactive) and 21.7 µM (inactive), respectively.
`COc1ccc(-c2nc(-c3cc4ccccc4oc3=O)cs2)cc1`: the GI50 is > 100 µM (inactive) in the experiment with BT-549 and 40.9 µM (inactive) in the experiment with Hs-578T.
For `[O-]c1c[n+](CC[n+]2cc([O-])on2)no1`, in that order: > 100 µM (inactive) and > 100 µM (inactive).
With `c1ccc2c(CN3CCN(Cc4c[nH]c5ccccc45)CC3)c[nH]c2c1`, the figures for the GI50 in the experiment on BT-549 and with Hs-578T were 22 µM (inactive) and 15.9 µM (inactive), respectively.
Regarding `O=Cc1c2ccccc2n2ccc3c4ccccc4[nH]c3c12`, the GI50 in the experiment with BT-549 and in the experiment with Hs-578T was > 10 µM (inactive) throughout.
With `COc1ccc2c(c1)C(OC)C1c3c(cc4c(c3-2)OCO4)CCN1C` (stereo not drawn), the figures for the GI50 in the experiment with BT-549 and in the experiment with Hs-578T were 2.28 µM (inactive) and 1.96 µM (inactive), respectively.
As for `O[C@@H]1CCC[C@@H]2NC[C@@H](c3ccc4c(c3)OCO4)[C@H]12`, the GI50 in the experiment with Hs-578T was 99.1 µM (inactive).
In the case of `O=C(Cn1cc(F)c(=O)[nH]c1=O)C12CC3CC(CC(C3)C1)C2`, the GI50 with BT-549 and with Hs-578T was > 100 µM (inactive) throughout.
Consider `COc1ccc2c3c1OC1C(OC)(OC)C=C[C@@]4(Br)[C@@H](C2)N(CC2CC2)CC[C@]314` (stereo partly drawn), for which the GI50 in the experiment on Hs-578T is 41.7 µM (inactive).
Take `CCOC(=O)C(C)NC(=O)N(C)C12CC3CC(CC(C3)C1)C2` (stereo not drawn): the GI50 was 50.7 µM (inactive) with DLD-1; 115 µM (inactive) in the experiment with DMS-114; 209 µM (inactive) in the experiment on DMS-273; 210 µM (inactive) with HOP-18; 192 µM (inactive) in the experiment with XF498.
As for `COc1ccc(N2C(=O)C3ON(C(C(N)=O)c4ccccc4)C(c4cc5ccccc5c5ccccc45)C3C2=O)cc1` (stereo not drawn), the GI50 in the experiment on BT-549 was 24.7 µM (inactive); in the experiment on Hs-578T, > 50 µM (inactive).
On to `O=[N+]([O-])c1cccc2nccc(NCCCO)c12`, for which the GI50 in the experiment with BT-549 is 8.93 µM (inactive); in the experiment with Hs-578T, 13.1 µM (inactive).
Consider `O=C1C(Cl)=C(OCCCl)C(=O)c2c(O)ccc(O)c21`, for which, in the experiment with BT-549, the GI50 was 13.3 µM (inactive).
Turning to `N#C/C(=C/NC(=S)NCc1ccccc1)C(N)=O`, the GI50 in the experiment on Hs-578T was > 100 µM (inactive).
Take `c1cc(Sc2nc(Sc3ccncc3)nc(Sc3ccncc3)n2)ccn1`: the GI50 with BT-549 and in the experiment with Hs-578T was > 100 µM (inactive) in each case.
In the case of `CO[C@H]1O[C@@H]2CO[C@@H](c3ccccc3)O[C@H]2[C@@H]2C/C=C\CCC[C@@]12O`, in the experiment on BT-549, the GI50 is 20.2 µM (inactive).
For the molecule `O=C1N(CN2CCOCC2)CN(CN2CCOCC2)C(=O)N1Cc1ccccc1`, in the experiment with BT-549, the GI50 is 21.6 µM (inactive).
With `CCN(CC)CCCNc1nncc2c(C)c3[nH]c4ccccc4c3cc12`, the GI50 was 1.34 µM (inactive) in the experiment with BT-549 and 0.865 µM (active) with Hs-578T.
Take `CC[C@]1(Cc2ccc(OC)c(OC)c2)C=[N+]([O-])O[C@H](OCc2ccccc2)[C@@H]1OC(C)=O`: the GI50 in the experiment with Hs-578T was 20.4 µM (inactive).
In the case of `CCOC(=O)C1=C(c2ccccc2)C12N(Cc1ccccc1)C(=O)C2(c1ccccc1)c1ccccc1` (stereo not drawn), the GI50 in the experiment on BT-549 was 24.8 µM (inactive); in the experiment with Hs-578T, 36.9 µM (inactive).
Consider `N#C/C(C(=O)Nc1ccc(Cl)cc1)=C(/N)N1CCOCC1`, for which the GI50 with BT-549 is > 100 µM (inactive).
Regarding `c1c(N2CCOCC2)s[s+]c1N1CCOCC1`, the GI50 in the experiment with DLD-1, with DMS-114, in the experiment on DMS-273, in the experiment on HOP-18 and in the experiment on LXFL 529 was > 100 µM (inactive) each time.
In the case of `Oc1ccc(O)c(CNc2ccccc2)c1`, the GI50 was 7.93 µM (inactive) with BT-549 and 25.5 µM (inactive) in the experiment with Hs-578T.
`O=C1Nc2ccccc2S/C1=C\c1cccc(C(F)(F)F)c1`: the GI50 with BT-549 and with Hs-578T was > 100 µM (inactive) throughout.
For `O=C(N/N=C(COc1ccccc1Cl)\N=C\c1cccnc1)c1ccncc1`, the GI50 in the experiment on BT-549 was > 100 µM (inactive); in the experiment on Hs-578T, 66.2 µM (inactive).
On to `COC1(OC)CCC2(C)OC(c3ccccc3)C1O2` (stereo not drawn), for which the GI50 in the experiment with DLD-1, with DMS-114, in the experiment on DMS-273, in the experiment on LXFL 529 and with XF498 was > 100 µM (inactive) in each case.
For `COc1ccc(-c2nc3ccccc3c(=S)n2OC(C)=O)cc1`, the GI50 with BT-549 is 8.57 µM (inactive); in the experiment with Hs-578T, 12.2 µM (inactive).
As for `[O-]c1on[n+]2c1c(Nc1ccc(Cl)cc1)nc1ccccc12`, the GI50 in the experiment with DLD-1, with DMS-114, with DMS-273, with LXFL 529 and in the experiment on XF498 was > 100 µM (inactive) throughout.
`CCCC(=O)Nc1cc(C(=O)N2C[C@H]3C[C@@]34C2=CC(=O)c2[nH]cc(C)c24)n(COC)c1`: the GI50 is 0.253 µM (active) in the experiment on BT-549 and 0.512 µM (active) in the experiment with Hs-578T.
Regarding `COC(=O)Cc1cc(=O)n2c([nH]c3ccccc32)c1C#N`, the GI50 in the experiment with DLD-1 was 30.8 µM (inactive); with DMS-114 it was > 100 µM (inactive); in the experiment with DMS-273, > 100 µM (inactive); in the experiment on XF498 it was > 100 µM (inactive).
On to `COc1cc([C@@H]2c3cc4c(cc3[C@H](OC3OC5COC(C(C)C)OC5C(O)C3O)C3COC(=O)[C@@H]32)OCO4)cc(OC)c1OC` (stereo partly drawn), for which the figures for the GI50 in the experiment with BT-549 and with Hs-578T were 5.52 µM (inactive) and 3.17 µM (inactive), respectively.
For `C=C(Cl)C(Cl)(CBr)CCC(Cl)C(C)C` (stereo not drawn), in that order: 14.3 µM (inactive) and 1.16 µM (inactive).
Consider `CC(=O)OCC1OC(N2C(=S)N[C@H]([C@@H](O)[C@H](O)[C@H](O)CO)[C@H]2O)C(OC(C)=O)C(OC(C)=O)C1OC(C)=O` (stereo partly drawn), for which the GI50 with BT-549 and in the experiment with Hs-578T was > 100 µM (inactive) throughout.
`O=C1OC(c2ccccc2)=N/C1=C\c1cn[nH]n1`: the GI50 in the experiment on Hs-578T is > 100 µM (inactive).
Consider `O=C(N/C(=C\c1ccccc1)c1nc2ccccc2c(=O)o1)c1ccccc1`, for which the GI50 was 20 µM (inactive) in the experiment with BT-549 and 22.1 µM (inactive) in the experiment on Hs-578T.
Regarding `CSCCCCCCCCCCOc1ccc(C=C2C(=C(C#N)C#N)c3ccccc3C2=C(C#N)C#N)cc1`, in the experiment with Hs-578T, the GI50 is 20.5 µM (inactive).
For `COC(=N)c1ncn(Cc2ccccc2)c1N`, in the experiment on Hs-578T, the GI50 was > 100 µM (inactive).
As to `CC1=CC(=O)N(n2c(C)n[nH]c2=O)C1=O`, the GI50 in the experiment with BT-549 and in the experiment with Hs-578T was > 100 µM (inactive) each time.
Turning to `COc1cc(/C=C2\CCc3ccccc3C2=O)ccc1O`, the GI50 was 17.9 µM (inactive) in the experiment on BT-549 and 29 µM (inactive) in the experiment with Hs-578T.
`CCC1(C)N=c2c(ncn2N=C(C)C)=C(C(N)=O)N1` (stereo not drawn): the GI50 in the experiment on Hs-578T is > 100 µM (inactive).
Turning to `CC(C)c1ccc2c(c1)C=C1OC(=O)[C@]3(C)CCC[C@@]2(C)C13` (stereo partly drawn), the GI50 in the experiment on BT-549 and with Hs-578T was > 100 µM (inactive) throughout.
With `COc1ccc(NC(=O)CSc2nnc(Cc3ccccc3)o2)cc1`, the GI50 in the experiment on DLD-1 is > 100 µM (inactive); in the experiment with DMS-114, 17.9 µM (inactive); in the experiment with DMS-273, > 100 µM (inactive); with HOP-18, > 100 µM (inactive); in the experiment on LXFL 529, > 100 µM (inactive).
As to `COc1ccc2cc(C(C)C(=O)N3C(=O)OCC3(C)C)ccc2c1` (stereo not drawn), the GI50 in the experiment with BT-549 was > 100 µM (inactive).
For `Nc1cc2c(c3ccccc13)C(CCl)CN2C(=O)c1cc2cc(NC(=O)c3cc4ccccc4o3)ccc2[nH]1` (stereo not drawn), the GI50 in the experiment with BT-549 is 0.00126 µM (active); in the experiment on Hs-578T it was 0.0169 µM (active).
As to `CC(C)(C)OC(=O)CCC1NC(=O)[C@@H]2Cc3c([nH]c4ccccc34)C(c3ccccc3)N2C1=O` (stereo partly drawn), the GI50 was 28.6 µM (inactive) with BT-549 and 16.7 µM (inactive) with Hs-578T.
Take `COc1ccc2nc(-c3ccc(O)cc3)sc2c1`: the GI50 in the experiment on BT-549 is 18.7 µM (inactive).
